biological target: T1, recombinant human mPGES-1 (Homo sapiens, UniProt O14684); assay: mPGES-1 inhibition, HTRF detection of PGE2; type: biochemical
T1 construct: made in house; host or cells: Rosetta E. coli (microsomal/membrane fraction)
T1 sequence (O14684 1-152): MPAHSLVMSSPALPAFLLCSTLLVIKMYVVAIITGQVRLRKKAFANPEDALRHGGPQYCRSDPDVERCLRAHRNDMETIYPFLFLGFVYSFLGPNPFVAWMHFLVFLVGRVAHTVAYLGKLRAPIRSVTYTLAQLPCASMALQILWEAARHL
Procedure, shortened: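 Microsomes from E. coli Rosetta expressing the enzyme, in 0.1 M KPi pH 7.4 with 2.5 mM GSH, were preincubated 25 min at room temperature with inhibitor in DMSO. PGH2 was added, the reaction stopped after one minute with acidified FeCl2, and PGE2 quantified by HTRF after 750-fold dilution.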

Row | inhibition at 10 µM | Structure (SMILES)
1 | 100% | Cn1c(Nc2c(F)cccc2Cl)nc2cc(C(=O)N[C@H]3CC[C@H](C)CC3)cnc21 [Example 486, 2-(2-Chloro-6-fluorophenylamino)-3-methyl-N-((1r,4r)-4-methycyclohexyl)-3H-imidazo[4,5-b]pyridine-6-carboxamide]
2 | 96% | O=C(Nc1cc(C(F)(F)F)ccn1)c1cc2nc(Nc3c(Cl)cc(F)cc3Cl)[nH]c2nc1OCC(F)(F)F [Example 819, 2-(2,6-Dichloro-4-fluoro-phenylamino)-5-(2,2,2-trifluoro-ethoxy)-N-(4-trifluoromethyl-pyridin-2-yl)-3H-imidazo[4,5-b]pyridine-6-carboxamide]
3 | 91% | O=C(N[C@H]1CC[C@H](C(F)(F)F)CC1)c1cc2nc(Nc3c(Cl)cc(F)cc3Cl)[nH]c2nc1OCC(F)F [Example 823, 2-(2,6-Dichloro-4-fluoro-phenylamino)-5-(2,2-difluoro-ethoxy)-N-(trans-4-trifluoromethyl-cyclohexyl)-3H-imidazo[4,5-b]pyridine-6-carboxamide]
4 | 91% | CN(C)CCOc1nc2[nH]c(Nc3c(Cl)cc(F)cc3Cl)nc2cc1C(=O)N[C@H]1CC[C@H](C(F)(F)F)CC1 [Example 864, 2-(2,6-Dichloro-4-fluoro-phenylamino)-5-(2-dimethylamino-ethoxy)-N-(trans-4-trifluoromethyl-cyclohexyl)-3H-imidazo[4,5-b]pyridine-6-carboxamide]
5 | 99% | O=C(N[C@H]1CC[C@H](C(F)(F)F)CC1)c1cc2nc(Nc3c(Cl)cncc3Cl)[nH]c2nc1OCC(F)F [Example 862, 2-(3,5-Dichloro-pyridin-4-ylamino)-5-(2,2-difluoro-ethoxy)-N-(trans-4-trifluoromethyl-cyclohexyl)-3H-imidazo[4,5-b]pyridine-6-carboxamide]
6 | 94% | CCCC[C@@H](C)NC(=O)c1cnc2c(c1)nc(Nc1c(Cl)cccc1Cl)n2C [Example 508, (R)-2-(2,6-Dichlorophenylamino)-N-(hexan-2-yl)-3-methyl-3H-imidazo[4,5-b]pyridine-6-carboxamide]
7 | 99% | Cn1c(Nc2c(Cl)cc(F)cc2Cl)nc2cc(C(=O)Nc3ccc(Br)cc3)c(OCC(F)F)nc21 [Example 818, 2-(2,6-Dichloro-4-fluoro-phenylamino)-5-(2,2-difluoro-ethoxy)-N-(4-bromo-phenyl)-3-methyl-3H-imidazo[4,5-b]pyridine-6-carboxamide]
8 | 100% | Cn1c(Nc2ccccc2C(F)(F)F)nc2cc(C(=O)N[C@H]3CC[C@H](C(F)(F)F)CC3)c(OCC(F)F)nc21 [Example 782, 2-(2-Trifluoromethyl-phenylamino)-5-(2,2-difluoro-ethoxy)-N-(trans-4-trifluoromethyl-cyclohexyl)-3-methyl-3H-imidazo[4,5-b]pyridine-6-carboxamide]
9 | 99% | Cn1c(Nc2c(Cl)cncc2Cl)nc2cc(C(=O)NCc3ncccc3C(F)(F)F)c(OCC(F)F)nc21 [Example 841, 2-(3,5-Dichloro-pyridin-4-ylamino)-5-(2,2-difluoro-ethoxy)-N-((3-trifluoromethyl-pyridin-2-yl)-methyl)-3-methyl-3H-imidazo[4,5-b]pyridine-6-carboxamide]
10 | 100% | O=C(N[C@H]1CC[C@H](C(F)(F)F)CC1)c1cnc2[nH]c(Nc3c(Cl)cccc3Cl)nc2c1 [Example 459, 2-(2,6-Dichlorophenylamino)-N-((1r,4r)-4-trifluoromethyl-cyclohexyl)-3H-imidazo[4,5-b]pyridine-6-carboxamide]
11 | 97% | COCCOc1nc2c(cc1C(=O)Nc1ccc(Br)cc1)nc(Nc1c(Cl)cncc1Cl)n2C [Example 812, 2-(3,5-Dichloro-pyridin-4-ylamino)-5-(2-methoxy-ethoxy)-N-(4-bromo-phenyl)-3-methyl-3H-imidazo[4,5-b]pyridine-6-carboxamide]
12 | 99% | Cn1c(Nc2c(Cl)cc(F)cc2Cl)nc2cc(C(=O)NCc3ncccc3C(F)(F)F)c(OCC(F)(F)F)nc21 [Example 813, 2-(2,6-Dichloro-4-fluoro-phenylamino)-5-(2,2,2-trifluoro-ethoxy)-N-((3-trifluoromethyl-pyridin-2-yl)-methyl)-3-methyl-3H-imidazo[4,5-b]pyridine-6-carboxamide]
13 | 100% | CC1(C)CCCC(NC(=O)c2cnc3[nH]c(Nc4c(Cl)cccc4Cl)nc3c2)C1 (stereo not drawn) [Example 469, 2-(2,6-Dichlorophenylamino)-N-(3,3-dimethylcyclohexyl)-3H-imidazo[4,5-b]pyridine-6-carboxamide]
14 | 100% | O=C(N[C@H]1CC[C@H](C(F)(F)F)CC1)c1cc2nc(Nc3c(Cl)cc(F)cc3Cl)[nH]c2nc1OCC(F)(F)F [Example 827, 2-(2,6-Dichloro-4-fluoro-phenylamino)-5-(2,2,2-trifluoro-ethoxy)-N-(trans-4-trifluoromethyl-cyclohexyl)-3H-imidazo[4,5-b]pyridine-6-carboxamide]
15 | 96% | Cn1c(Nc2c(Cl)cncc2Cl)nc2cc(C(=O)Nc3ccc(Br)cc3)c(OCC(F)F)nc21 [Example 837, 2-(3,5-Dichloro-pyridin-4-ylamino)-5-(2,2-difluoro-ethoxy)-N-(4-bromo-phenyl)-3-methyl-3H-imidazo[4,5-b]pyridine-6-carboxamide]
16 | 100% | O=C(Nc1ccc(Br)cc1)c1cc2nc(Nc3c(Cl)cc(F)cc3Cl)[nH]c2nc1OCC(F)F [Example 822, 2-(2,6-Dichloro-4-fluoro-phenylamino)-5-(2,2-difluoro-ethoxy)-N-(4-bromo-phenyl)-3H-imidazo[4,5-b]pyridine-6-carboxamide]
17 | 96% | CC(=O)N(C)CCOc1nc2c(cc1C(=O)Nc1ccc(Br)cc1)nc(Nc1c(Cl)cncc1Cl)n2C [Example 810, 2-(3,5-Dichloro-pyridin-4-ylamino)-5-(2-(acetyl-methyl-amino)-ethoxy)-N-(4-bromo-phenyl)-3-methyl-3H-imidazo[4,5-b]pyridine-6-carboxamide]
18 | 93% | Cn1c(Nc2c(Cl)cccc2Cl)nc2cc(C(=O)N[C@H]3CC[C@H](C(F)F)CC3)cnc21 [Example 560]
19 | 87% | O=C(N[C@H]1CC[C@H](C(F)(F)F)CC1)c1cc2nc(Nc3cccnc3C(F)(F)F)[nH]c2nc1OCC(F)F [Example 798, 2-(2-Trifluoromethyl-pyridin-3-ylamino)-5-(2,2-difluoro-ethoxy)-N-(trans-4-trifluoromethyl-cyclohexyl)-3H-imidazo[4,5-b]pyridine-6-carboxamide]

Row | Structure (SMILES) | inhibition at 10 µM
20 | O=C(NCC(F)(F)C(F)(F)C(F)(F)C(F)(F)F)c1cc2nc(Nc3c(Cl)cc(F)cc3Cl)[nH]c2nc1OCC(F)(F)F [Example 829, 2-(2,6-Dichloro-4-fluoro-phenylamino)-5-(2,2,2-trifluoro-ethoxy)-N-(2,2,3,3,4,4,5,5,5-nonafluoropentyl)-3H-imidazo[4,5-b]pyridine-6-carboxamide] | 100%
21 | Cn1c(Nc2c(Cl)cncc2Cl)nc2cc(C(=O)NCC(F)(F)C(F)(F)C(F)(F)C(F)(F)F)c(OCC(F)(F)F)nc21 [Example 850, 2-(3,5-Dichloro-pyridin-4-ylamino)-5-(2,2,2-trifluoro-ethoxy)-N-(2,2,3,3,4,4,5,5,5-nonafluoro-pentyl)-3-methyl-3H-imidazo[4,5-b]pyridine-6-carboxamide] | 99%
